Source: PMC9317316, “Synthesis and Evaluation of Some New 4H-Pyran Derivatives as Antioxidant, Antibacterial and Anti-HCT-116 Cells of CRC, with Molecular Docking, Antiproliferative, Apoptotic and ADME Investigations” (Pharmaceuticals, 2022)
Where two headings read alike, the source gives them in different places.

Experiments:
[1] = system: CDK2 protein in HCT-116 cells; assay: Quantitative determination of CDK2 concentration in HCT-116 cell lysates (Human CDK2 ELISA Kit); assay type: cell-based; conditions: negative control 7.466 ng/mL
Procedure: First, the commercial Human CDK2 ELISA Kit was used to estimate concentrations of the protein in the lysate of HCT-116 cells treated with 4d and 4k. The results were compared with the positive (cells treated with the reference CDK inhibitor, BMS-265246) and negative control experiments.
The in vitro quantitative measurement of concentration of CDK2 in lysates of HCT-116 cells was carried out using a commercial Human CDK2 ELISA Kit (cat. no.: LS-F22176; LifeSpan Biosciences Inc., Seattle, WA, USA) in the presence or absence of the studied compounds (4d and 4k), following the manufacturer’s instructions. Briefly, standards, blanks or samples were first incubated in the corresponding wells for 90 min at 37 °C. Then, biotinylated detection antibody was added to each well and the plate was incubated for 1 h at 37 °C followed by the addition of an Avidin–Horseradish Peroxidase (HRP) conjugate which binds to the biotin. After incubation of the mixture for 30 min at 37 °C, unbound Avidin–HRP conjugate was washed away and a TMB substrate was then added which reacts with the HRP enzyme, resulting in color development. After that, the reaction was stopped using a sulfuric acid stop solution to terminate the color-development reaction and the optical density of each well was measured using a microplate reader at 450 nm. BMS-265246 was used as the standard drug for inhibition of CDK2. All measurements were performed in triplicate.

CDK2/CyclinA2 enzyme = target: T1, CDK2/CyclinA2 enzyme (Homo sapiens, UniProt P24941); assay: In vitro CDK2 inhibitory assay (Kinase-Glo); assay type: biochemical
T1 construct: purchased BPS Biosciences, San Diego, CA, USA 79599
Procedure: To further substantiate the promising results of the docking analyses of pyrans 4d and 4K in the ATP active site of CDK2, their in vitro potencies to inhibit the enzyme activity were evaluated over a concentration range of 0.01−10 µM.
CDK-2 inhibition activity of the studied compounds 4d and 4k was evaluated using a commercial CDK2 […] (cat. no.: 79599; BPS Biosciences, San Diego, CA, USA) following the manufacturer’s instructions. Briefly, different concentrations of each compound or the positive control BMS-265246 (0.01, 0. 1, 1 or 10 µM) were incubated with 20 µL of diluted CDK2/CyclinA2 enzyme at 30 °C for 45 min. Following the addition of 50 µL Kinase-Glo® Reagent to each well, the plate was incubated at room temperature for 15 min. Then, the luminescence signal was measured using the microplate reader. The CDK2 inhibitory activity was expressed as inhibition percentage, which was determined by comparison with a control experiment for comparative purposes. IC50 values were deduced from the curves. All measurements were performed in triplicate.

S. aureus (ATCC 25923) [2] = assay: Antibacterial viability (CFU) assay, IC50; assay type: cell-based; conditions: Staphylococcus aureus, ATCC25923
Method in brief: (§1)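 CFU assay: 2 ×10^7 CFU/mL, BHI, compound, 60 min shaking 37 °C → serial dilution → agar plates 24 h 37 °C → residual CFU vs inoculum → IC50 (n=3). Agar diffusion: zone on top agar; ampicillin 10 µg/well reference.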

E. coli (ATCC 25966) [3] = assay: Antibacterial viability (CFU) assay, IC50; assay type: cell-based; conditions: Escherichia coli, ATCC25966; E. coil (ATCC 25966)
Method in brief: as §1

B. subtilis (ATCC 6633) [4] = assay: Antibacterial viability (CFU) assay, IC50; assay type: cell-based; conditions: Bacillus subtilis, ATCC6633, B. subtilis (ATCC 6633)
Method in brief: as §1

S. enteric (ATCC 43972) [5] = assay: Antibacterial viability (CFU) assay, IC50; assay type: cell-based; conditions: read-out: IC50
Method in brief: as §1

[6] = system: P. aeruginosa (ATCC 27853); assay: Antibacterial viability (CFU) assay, IC50; assay type: cell-based; conditions: Pseudomonas aeruginosa, ATCC27853
Method in brief: as §1

B. cereus (ATCC 14579) [7] = assay: Antibacterial viability (CFU) assay, IC50; assay type: cell-based; conditions: Bacillus cereus, ATCC14579
Method in brief: as §1

E. faecalis (ATCC 29122) [8] = assay: Antibacterial viability (CFU) assay, IC50; assay type: cell-based; conditions: Enterococcus faecalis, ATCC29122
Method in brief: as §1

[9] = system: S. epidermidis (ATCC 14990); assay: Antibacterial viability (CFU) assay, IC50; assay type: cell-based; conditions: Staphylococcus epidermidis, ATCC14990
Method in brief: as §1

[10] = system: K. pneumonia (ATCC 700603); assay: Antibacterial viability (CFU) assay, IC50; assay type: cell-based; conditions: Klebsiella pneumoniae, ATCC700603
Method in brief: as §1

[11] = DPPH radical scavenging assay; conditions: for IC50: 0.03 to 1 mg/mL, 1 h, mean ± SD, triplicate, read-out: IC50 (mM) for DPPH Scavenging Potency
Method in brief: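 Ethanolic DPPH mixed with samples at 0.03 to 1 mg/mL, kept 1 h at room temperature in darkness, then absorbance read at 519 nm against compound-free control. Scavenging percentage computed as (1 − Acompound/Acontrol) × 100; IC50 interpolated from scavenging-versus-concentration plot.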

S. aureus (ATCC 25923) [12] = assay: Antibacterial agar diffusion method (inhibition zone); assay type: cell-based
Method in brief: as §1

E. coli (ATCC 25966) [13] = assay: as above; assay type: cell-based; conditions: E. coil (ATCC 25966)
Method in brief: as §1

B. subtilis (ATCC 6633) [14] = assay: as above; assay type: cell-based
Method in brief: as §1

S. enteric (ATCC 43972) [15] = assay: as above; assay type: cell-based
Method in brief: as §1

[16] = system: P. aeruginosa (ATCC 27853); assay: as above; assay type: cell-based
Method in brief: as §1

B. cereus (ATCC 14579) [17] = assay: as above; assay type: cell-based
Method in brief: as §1

E. faecalis (ATCC 29122) [18] = assay: as above; assay type: cell-based
Method in brief: as §1

[19] = system: S. epidermidis (ATCC 14990); assay: as above; assay type: cell-based
Method in brief: as §1

[20] = system: K. pneumonia (ATCC 700603); assay: as above; assay type: cell-based
Method in brief: as §1

[21] = Reducing power assay (FRAC, Fe3+ to Fe2+); conditions: 0-1 mg/mL, absorbance 700 nm
Method in brief: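 Oyaizu method: compound (0–1 mg/mL) incubated with 0.2 M phosphate buffer pH 6.6 and 1% K3Fe(CN)6 at 50 °C for 20 min, then TCA, centrifugation, and 0.1% FeCl3 added to supernatant. Absorbance read at 700 nm; EC50 expressed in mM, BHT as reference.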

HCT-116 cells = assay: Cell viability (cytotoxicity, LDH release) assay; assay type: cell-based; conditions: Homo sapiens, 24 h; for viability at 100 µg/mL: read-out: percent of viable cells
Method in brief: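 Human colorectal HCT-116 cells exposed to compounds at 10, 25, 50 and 100 µg/mL in DMEM with 10% FBS for 24 h at 37 °C. LDH released into the supernatant measured at 600 nm; viability given as % of untreated control OD (mean ± SD, n = 3), 0.1% Triton X-100 as positive control.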

[22] = read-out: Mean IC50 (µM) of cytotoxicity
[23] = read-out: Mean IC50 (µg/mL) of cytotoxicity

Structure (SMILES): CCCCOc1c(C(=O)c2c(F)cc(C)cc2F)c[nH]c2nncc1-2 [BMS-265246, reference compound]
- concentration of CDK2 in lysate of treated HCT-116 cells [1]: 2.229 ng/mL
- decrease of CDK2 activity (CDK2/CyclinA2 enzyme; at 10 µM): 92.3%
- IC50 (CDK2/CyclinA2 enzyme; deduced from curves over 0.01-10 µM, read-out: IC50 against CDK2): 0.036 µM

Structure (SMILES): COc1cccc(C2C(C#N)=C(N)OC(C)=C2C(=O)OCc2ccccc2)c1[N+](=O)[O-] (centres unmarked) [4c, 6-Amino-5-cyano-4-(3-methoxy-2-nitro-phenyl)-2-methyl-4H-pyran-3-carboxylic acid benzyl ester]
- melting point: 190 to 192 °C
- IC50 (S. aureus (ATCC 25923) [2]): 37 ± 2.02 µM
- IC50 (E. coli (ATCC 25966) [3]): 93.7 ± 4.98 µM
- IC50 (B. subtilis (ATCC 6633) [4]): 46.3 ± 1.68 µM
- IC50 (S. enteric (ATCC 43972) [5]): 100 ± 2.61 µM
- IC50 [6]: 85.9 ± 2.61 µM
- IC50 (B. cereus (ATCC 14579) [7]): 44.5 ± 0.83 µM
- IC50 (E. faecalis (ATCC 29122) [8]): 41.1 ± 2.18 µM
- IC50 [9]: 30.4 ± 1 µM
- IC50 [10]: 112 ± 1.42 µM
- IC50 [11]: 2.24 ± 0.05 mM
- DPPH Radical Scavenging Effenciency (%) at 1 mg/mL [11]: 57.10 ± 1.56%
- IZ (mm) (S. aureus (ATCC 25923) [12]): 15.50 ± 0.71 mm
- IZ (mm) (E. coli (ATCC 25966) [13]): 2.5 ± 0.71 mm
- IZ (mm) (B. subtilis (ATCC 6633) [14]): 11.00 ± 1.41 mm
- IZ (mm) (S. enteric (ATCC 43972) [15]): 8.5 ± 0.7 mm
- IZ (mm) [16]: 7.5 ± 0.7 mm
- IZ (mm) (B. cereus (ATCC 14579) [17]): 14.00 ± 1.41 mm
- IZ (mm) (E. faecalis (ATCC 29122) [18]): 10.00 ± 1.41 mm
- IZ (mm) [19]: 16.65 ± 0.50 mm
- IZ (mm) [20]: 3.5 ± 0.7 mm
- EC50 [21]: 1230 ± 67 µM
- viability at 100 µg/mL (HCT-116 cells): 11 to 32.5%
- IC50 (HCT-116 cells; [22]): 102 ± 4.82 µM
- IC50 (HCT-116 cells; [23]): 43 ± 2.03 µg/mL

Structure (SMILES): COC(=O)C1=C(C)OC(N)=C(C#N)C1c1ccccc1C(=O)O (centres unmarked) [4a, 6-Amino-4-(2-carboxy-phenyl)-5-cyano-2-methyl-4H-pyran-3-carboxylic acid methyl ester]
- melting point: 216 to 218 °C
- IC50 (S. aureus (ATCC 25923) [2]): 41.2 ± 2.48 µM
- IC50 (E. coli (ATCC 25966) [3]): 138 ± 6.68 µM
- IC50 (B. subtilis (ATCC 6633) [4]): 64.4 ± 3.37 µM
- IC50 (S. enteric (ATCC 43972) [5]): 120 ± 1.91 µM
- IC50 [6]: 37.6 ± 0.5 µM
- IC50 (B. cereus (ATCC 14579) [7]): 71.8 ± 2.04 µM
- IC50 (E. faecalis (ATCC 29122) [8]): 49.6 ± 1.81 µM
- IC50 [9]: 42.3 ± 1.33 µM
- IC50 [10]: 131 ± 3.5 µM
- IC50 [11]: 2.29 ± 0.134 mM
- DPPH Radical Scavenging Effenciency (%) at 1 mg/mL [11]: 24.15 ± 1.62%
- IZ (mm) (S. aureus (ATCC 25923) [12]): 8.00 ± 1.41 mm
- IZ (mm) (E. coli (ATCC 25966) [13]): 4.5 ± 0.71 mm
- IZ (mm) (B. subtilis (ATCC 6633) [14]): 5.20 ± 0.28 mm
- IZ (mm) (S. enteric (ATCC 43972) [15]): 4.5 ± 0.7 mm
- IZ (mm) [16]: 5.5 ± 0.7 mm
- IZ (mm) (B. cereus (ATCC 14579) [17]): 7.50 ± 0.71 mm
- IZ (mm) (E. faecalis (ATCC 29122) [18]): 9.00 ± 1.41 mm
- IZ (mm) [19]: 9.50 ± 0.71 mm
- IZ (mm) [20]: 2.5 ± 0.7 mm
- EC50 [21]: 827 ± 45 µM
- viability at 100 µg/mL (HCT-116 cells): 46%
- IC50 (HCT-116 cells; [22]): 165 ± 14.4 µM
- IC50 (HCT-116 cells; [23]): 52 ± 4.54 µg/mL
